From patent US9056067B2, “Pharmaceutical composition for enhancing immunity, and extract of Poria” (Sinphar Pharmaceutical Co., Ltd., priority 2003, dated 2015)

What was measured:
Type in all cases: in vivo, mice
[1] = test system: IgA; assay: IgA secretion by spleen cells in vitro (LPS, ELISA) after oral administration
Procedure: (§1) […] […] The control group was the mice feeding with an equal volume of saline (0.85% of NaCl). Mice were sacrificed at day five, and both the serum and spleen cells were collected. The sera were subsequently used to measure the concentration of IgG, IgM and IgA. The spleen cells were plated onto a 100 mm diameter culture plate and incubated at 37° C. for three hours. The non-adherent cells containing T-lymphocytes, B-lymphocytes and NK cells were collected and properly diluted as described in each assay.
(§2) The mouse to be sacrificed was cervical dislocated and sterilized with 70% ethanol. The cardiac punctuation was performed first to withdraw the blood. After the haemagglutination, the blood sample was subjected to centrifugation and the serum was collect. For isolation of spleen cells, the peritoneum was opened to remove the spleen. The fresh spleen was transferred to a culture plate containing 10 ml of RPMI-1640 culture medium. The spleen was then ground over a fine mesh to release the spleen cells. The spleen cells suspending in the medium were then removed and transferred to a 50-ml conical centrifuge tube. The tube was subjected to centrifugation at 1300 rpm for 10 min. The supernatant was discarded and the pellet was re-suspended in 1 ml of cold RBC lysing buffer containing EDTA-NH4Cl. The cells were incubated at room temperature for 10 min, followed by washing the cells three times with culture medium by centrifugation. The spleen cells were plated onto a 100 mm diameter culture plate and incubated at 37° C. for three hours. The non-adherent cells containing T-lymphocytes, B-lymphocytes and NK cells were collected and properly diluted as described in each assay.
(§3) An ELISA was performed in our study to measure the immunoglobulin concentration. Briefly, the spleen cells (5×10^5 cells/ml) were cultured in a medium containing RPMI 1640 supplemented with 10% fetal bovine serum (FBS), 2 mM L-glutamine, antibiotics and 5 μg/ml lipopolysaccharide (LPS; 1 μg/10^5 cells) for 5 days. LPS is a polyclonal activator of B lymphocyte. Culture spleen cell supernatants were collected at day 3, 4 and 5. IgA, IgG and IgM concentrations were measured using a sandwich ELISA technique.
The procedure for IgA assay was similar to that for IgG assay, except that the samples were 1/10^4 diluted and standard IgA ranged from 1 μg/ml to 0.0156 μg/ml were added (100 μl/well). The secondary antibody for the assay was HRP-conjugated goat anti-mouse IgA (1:1000 diluted; Zymed Laboratory, CA).

[2] = test system: immune cells (T cells/B cells); assay: Immunity response tests (overall statement); details: Table 2 to Table 10
Procedure: The Poria extract and the purified compounds from the Poria extract by chromatography prepared according to the methods of the present invention were tested by various immunity response experiments listed in the following.

[3] = test system: IgG; assay: IgG secretion by spleen cells in vitro (LPS, ELISA) after oral administration
Procedure: as §1, §2, §3
A 96-well microtiter plate (Nunc-Immuno Plate, MaxiSorp, Nunc, Denmark) was precoated with 100 ng/well of capture antibodies at 4° C. overnight. The capture antibody was a rabbit anti-mouse IgG+IgA+IgM antibody (Zymed Laboratory, CA). The plate was washed with PBS-0.05% Tween 20 solution and blocked with PBS-1% gelatin. After the blocking, the properly diluted samples (1/10^5 diluted) and standard IgG ranged from 0.25 μg/ml to 0.039 μg/ml were added (100 μl/well). The plate was then incubated at 37° C. for 2 h. At the end of incubation, HRP-conjugated goat anti-mouse IgG (1:2,000 diluted; anti-whole IgG molecule; Zymed Laboratory, CA) was added (100 μl/well). After 1 h of incubation at 37° C., the color was developed using a substrate solution containing 0.1 M citrate buffer, pH 4.5, 0.03% H2O2 and 0.1% of o-phenylenediamine. The absorbence at 490 nm in each well was read using an ELISA reader (EL311, BioTek, VT), and the data was analyzed using log-logit model.

[4] = test system: IgM; assay: Serum level of IgM (ELISA); details: for Dose with significant increase in serum level of IgM: oral
Procedure: as §1, §2, §3
The procedure for IgM assay was similar to that for IgG assay, except that the samples were 1/10^4 diluted and standard IgM ranged from 1 μg/ml to 0.0156 μg/ml were added (100 μl/well). The secondary antibody for the assay was HRP-conjugated goat anti-mouse IgM (1:1,000 diluted; heavy chain-specific; Zymed Laboratory, CA).

[5] = oral 10 mg/kg/day for four days
[6] = oral 20 mg/kg/day for four days

Compound	IgA secretion by spleen cell, incubation day 3 ([1]; oral 5 mg/kg/day for four days)	IgA secretion by spleen cell, incubation day 4 ([1]; oral 5 mg/kg/day for four days)	IgA secretion by spleen cell, incubation day 5 ([1]; oral 5 mg/kg/day for four days)	IgA secretion by spleen cell, incubation day 3 [1, 5]	IgA secretion by spleen cell, incubation day 4 [1, 5]	IgA secretion by spleen cell, incubation day 5 [1, 5]	IgA secretion by spleen cell, incubation day 3 [1, 6]	IgA secretion by spleen cell, incubation day 4 [1, 6]	IgA secretion by spleen cell, incubation day 5 [1, 6]	Dosage at which potent [2]	Immunity enhancement in immune cells (T cells/B cells) (in words) [2]	IgG secretion by spleen cell, incubation day 3 ([3]; oral 5 mg/kg/day for four days)	IgG secretion by spleen cell, incubation day 4 ([3]; oral 5 mg/kg/day for four days)	IgG secretion by spleen cell, incubation day 5 ([3]; oral 5 mg/kg/day for four days)	IgG secretion by spleen cell, incubation day 3 [3, 5]	IgG secretion by spleen cell, incubation day 4 [3, 5]	IgG secretion by spleen cell, incubation day 5 [3, 5]	IgG secretion by spleen cell, incubation day 3 [3, 6]	IgG secretion by spleen cell, incubation day 4 [3, 6]	IgG secretion by spleen cell, incubation day 5 [3, 6]	further results
C=C(CC[C@@H](C(=O)O)[C@H]1[C@H](O)C[C@@]2(C)C3=CC[C@H]4C(C)(C)C(=O)CC[C@]4(C)C3=CC[C@]12C)C(C)C [K3]	32.83 ± 7.00	27.37 ± 5.83	21.96 ± 4.17	26.57 ± 3.68	28.97 ± 5.95	18.87 ± 2.66	43.08 ± 4.05	43.45 ± 5.92	30.50 ± 3.60	potent at dosage low than 2.5 or 5.0	immunity enhancement activities	3.85 ± 0.73	3.43 ± 0.40	4.46 ± 0.95	3.18 ± 0.55	3.16 ± 0.62	3.48 ± 0.43	6.12 ± 0.70	7.10 ± 1.39	8.56 ± 1.34	Effect on IgA secretion by spleen cells (in words) ([1]; oral): significantly suppressed; Effect on IgG secretion by spleen cells (in words) ([3]; oral): significantly suppressed; Dose with significant increase in serum level of IgM [4]: 5 mg/kg/day; Serum immunoglobulin concentration IgM ([4]; oral 5 mg/kg/day for four days): 1.63 ± 0.11 mg/mL; Serum immunoglobulin concentration IgM [4, 5]: 1.53 ± 0.14 mg/mL; Serum immunoglobulin concentration IgM [4, 6]: 1.53 ± 0.13 mg/mL
C=C(CCC(C(=O)O)C1C(O)CC2(C)C3=CCC4C(C)(CCC(O)C4(C)C)C3=CCC12C)C(C)C (stereo not drawn) [K4]	55.56 ± 4.71	79.51 ± 3.74	106.69 ± 7.29	66.43 ± 5.26	95.39 ± 10.08	121.97 ± 12.69	119.59 ± 15.08	101.53 ± 25.08	133.16 ± 20.09	potent at dosage low than 2.5 or 5.0	immunity enhancement activities	12.55 ± 3.08	12.99 ± 0.86	18.29 ± 0.92	6.54 ± 1.43	15.15 ± 5.16	22.59 ± 5.35	21.23 ± 3.19	19.11 ± 4.23	22.56 ± 3.84	Dose with increase in IgA secretion by spleen cells ([1]; oral, PCM-K1 at day 3 and day 5): ≥ 5 mg/kg/day; Dose with significant increase in serum level of IgM [4]: 5 mg/kg/day; Serum immunoglobulin concentration IgM ([4]; oral 5 mg/kg/day for four days): 2.65 ± 0.21 mg/mL; Serum immunoglobulin concentration IgM [4, 5]: 2.86 ± 0.16 mg/mL; Serum immunoglobulin concentration IgM [4, 6]: 2.36 ± 0.16 mg/mL
